From PMC4362760, “JAK2^V617F Drives Mcl-1 Expression and Sensitizes Hematologic Cell Lines to Dual Inhibition of JAK2 and Bcl-xL” (PLoS ONE, 2015)

What was measured:
[1] = test system: multiple xenograft models; settings: oral, single agent and in combination with standard of care chemotherapies; cited from earlier work
SET-2 cells = test: alamarBlue cell viability, JAKi-I/ABT-263 combination, 72 hr, SET-2; format: cell-based; settings: SET-2, 72h, Jaki-1 0 uM
Experimental: Transfection of siRNAs was performed using Lipofectamine RNAiMAX according to the manufacturer’s recommendations. […] Caspase-3 activity was determined using the Caspase-GLO 3/7 Assay (Promega) in parallel with the CellTiter-GLO viability assay (Promega). The data are expressed as Caspase-3/7 activity divided by cell viability.
Caspase-3 activity was determined at each time point. Data are from duplicate samples and are representative of at least three independent experiments. (D-G) Cells were treated in combination as indicated, and cell viability was determined after 72 hr. Data are means of duplicate determinations, and are representative of at least three independent experiments. […] Drugs were added simultaneously, and cell viability was determined after 72 hr. The data were then analyzed using the drug-drug interaction model of Bliss additivity^16 to define dose combinations that were synergistic (values >15; red), antagonistic (values <-15; blue), or without effect (-15<values<15; gray). (I) Model of JAK2/Bcl-2 family inhibitor synergy. JAK2^V617F constitutively phosphorylates and activates STAT3/5, thus enforcing expression of the transcriptional target, Mcl-1. Mcl-1 collaborates with Bcl-XL to oppose apoptosis and support viability.
Supplementary file pone.0114363.s006.xls: S6 Dataset Cells were treated in combination as indicated, and cell viability was determined using alamarBlue after 72 hr. Data are means of duplicate determinations, and are representative of at least three independent experiments. (XLS) Click here for additional data file.

Syk CatDom = target: T1, Syk CatDom (Homo sapiens, UniProt P43405); test: TR-FRET Kinome Syk CatDom; format: binding; settings: Syk CatDom .006(Subs Conc)
T1 construct: Syk CatDom
From the text: (§1) (XLS) Click here for additional data file.

IGF1R = IGF1R (Homo sapiens, UniProt P08069); test: TR-FRET Kinome IGF1R; format: binding; settings: IGF1R Invitrogen .05(Subs Conc)
From the text: as §1

Abl = Abl (Homo sapiens, UniProt P00519); test: TR-FRET Kinome Abl; format: binding; settings: Abl Invitrogen .025(Subs Conc)
From the text: as §1

MAP3K10 = MAP3K10 (Homo sapiens, UniProt Q02779); test: TR-FRET Kinome MAP3K10; format: binding; settings: MAP3K10 Invitrogen .005(Subs Conc)
From the text: as §1

AMPK = test: TR-FRET Kinome AMPK; format: binding, human; settings: AMPK Invitrogen .1(Subs Conc)
From the text: as §1

Bcl-XL = Bcl-XL protein level by immunoblotting; format: cell-based; settings: 24-hr time course
Experimental: SET-2, HEL, MV4;11, and K562 cells were obtained from ATCC and cultured as recommended. UKE-1 cells were purchased from Walter Fiedler (University of Hamburg). Cell lysates were either prepared using CHAPS lysis buffer (10 mM HEPES, pH 7.4, 150 mM NaCl, 1% CHAPS) or cell extraction buffer containing 1% Triton X-100, 0.1% SDS, and 0.5% deoxycholate. All buffers were supplemented with protease and phosphatase inhibitor cocktails prior to use.
(§2) Fig 1 Regulation of Mcl-1 and Bcl-XL by JAK2 ^V617F. […] Tyrosine phoshorylation of STAT3 and STAT5 was determined by immunoblotting. […] Constitutive tyrosine phosphorylation of STAT3 and STAT5 was determined by immunoblotting. […] Data represent means +/- standard deviation for two independent determinations each performed in triplicate. […] (G) Quantification of the data shown in (F). Data are expressed as the ratio of intensity of Mcl-1/β-actin for each time point. […] Data are means of duplicate samples and are representative of two independent experiments.

Mcl-1 mRNA = Mcl-1 mRNA abundance by qPCR in SET-2, UKE-1, HEL, MV4;11, K562 cells; format: cell-based; settings: for MCL-1 % Control: treated vs non-treated (100.0); for MCL-1 Mean QTY: treated, normalised mRNA quantity by qPCR
BRAF = BRAF (Homo sapiens, UniProt P15056); test: TR-FRET Kinome BRAF; format: binding; settings: BRAF Invitrogen .065(Subs Conc)
From the text: as §1

Bcl-XL mRNA = Bcl-XL mRNA abundance by qPCR in SET-2, UKE-1, HEL, MV4;11, K562 cells; format: cell-based; settings: for BCLxl % Control: treated vs non-treated (100.0); for BCLxl Mean QTY: treated, normalised mRNA quantity by qPCR
Experimental: as §2
Data represent means +/- standard deviation for two independent determinations each performed in triplicate (data in Summary tab). Individual experimental data in exp 051409 and repeat Mcl1 tabs. (XLS) Click here for additional data file.

cdk2 = cdk2 (Homo sapiens, UniProt P24941); test: TR-FRET Kinome cdk2; format: binding; settings: cdk2 Invitrogen .05(Subs Conc)
From the text: as §1

EGFR = EGFR (Homo sapiens, UniProt P00533); test: TR-FRET Kinome EGFR; format: binding; settings: EGFR Invitrogen .05(Subs Conc)
From the text: as §1

Wee1 = Wee1 (Homo sapiens, UniProt P30291); test: TR-FRET Kinome Wee1; format: binding; settings: Wee1 Carna Biosciences .015(Subs Conc)
From the text: as §1

ACVR1 = target: T2, ACVR1 (Homo sapiens, UniProt Q04771); test: TR-FRET Kinome ACVR1; format: binding; settings: ACVR1 Invitrogen .05(Subs Conc)
T2 construct: purchased Invitrogen
From the text: as §1

CAMKK2 = CAMKK2 (Homo sapiens, UniProt Q96RR4); test: TR-FRET Kinome CAMKK2; format: binding; settings: CAMKK2 Invitrogen .03(Subs Conc)
From the text: as §1

T2 sequence (Q04771 21-509): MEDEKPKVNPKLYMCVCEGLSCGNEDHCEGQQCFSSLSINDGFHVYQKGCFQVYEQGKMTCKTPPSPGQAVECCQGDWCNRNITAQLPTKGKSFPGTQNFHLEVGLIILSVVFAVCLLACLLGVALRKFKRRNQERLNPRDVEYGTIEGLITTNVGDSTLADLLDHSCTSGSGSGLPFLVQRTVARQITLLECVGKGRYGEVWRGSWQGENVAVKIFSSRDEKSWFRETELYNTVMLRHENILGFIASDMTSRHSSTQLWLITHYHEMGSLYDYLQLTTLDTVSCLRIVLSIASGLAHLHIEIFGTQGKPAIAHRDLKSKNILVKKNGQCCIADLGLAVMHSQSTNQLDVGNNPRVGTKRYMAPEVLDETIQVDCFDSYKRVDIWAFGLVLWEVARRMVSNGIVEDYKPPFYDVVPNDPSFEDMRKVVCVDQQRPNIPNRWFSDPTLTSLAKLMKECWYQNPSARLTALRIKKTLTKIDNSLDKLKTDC
Chain of IGF1R (P08069 31-1367): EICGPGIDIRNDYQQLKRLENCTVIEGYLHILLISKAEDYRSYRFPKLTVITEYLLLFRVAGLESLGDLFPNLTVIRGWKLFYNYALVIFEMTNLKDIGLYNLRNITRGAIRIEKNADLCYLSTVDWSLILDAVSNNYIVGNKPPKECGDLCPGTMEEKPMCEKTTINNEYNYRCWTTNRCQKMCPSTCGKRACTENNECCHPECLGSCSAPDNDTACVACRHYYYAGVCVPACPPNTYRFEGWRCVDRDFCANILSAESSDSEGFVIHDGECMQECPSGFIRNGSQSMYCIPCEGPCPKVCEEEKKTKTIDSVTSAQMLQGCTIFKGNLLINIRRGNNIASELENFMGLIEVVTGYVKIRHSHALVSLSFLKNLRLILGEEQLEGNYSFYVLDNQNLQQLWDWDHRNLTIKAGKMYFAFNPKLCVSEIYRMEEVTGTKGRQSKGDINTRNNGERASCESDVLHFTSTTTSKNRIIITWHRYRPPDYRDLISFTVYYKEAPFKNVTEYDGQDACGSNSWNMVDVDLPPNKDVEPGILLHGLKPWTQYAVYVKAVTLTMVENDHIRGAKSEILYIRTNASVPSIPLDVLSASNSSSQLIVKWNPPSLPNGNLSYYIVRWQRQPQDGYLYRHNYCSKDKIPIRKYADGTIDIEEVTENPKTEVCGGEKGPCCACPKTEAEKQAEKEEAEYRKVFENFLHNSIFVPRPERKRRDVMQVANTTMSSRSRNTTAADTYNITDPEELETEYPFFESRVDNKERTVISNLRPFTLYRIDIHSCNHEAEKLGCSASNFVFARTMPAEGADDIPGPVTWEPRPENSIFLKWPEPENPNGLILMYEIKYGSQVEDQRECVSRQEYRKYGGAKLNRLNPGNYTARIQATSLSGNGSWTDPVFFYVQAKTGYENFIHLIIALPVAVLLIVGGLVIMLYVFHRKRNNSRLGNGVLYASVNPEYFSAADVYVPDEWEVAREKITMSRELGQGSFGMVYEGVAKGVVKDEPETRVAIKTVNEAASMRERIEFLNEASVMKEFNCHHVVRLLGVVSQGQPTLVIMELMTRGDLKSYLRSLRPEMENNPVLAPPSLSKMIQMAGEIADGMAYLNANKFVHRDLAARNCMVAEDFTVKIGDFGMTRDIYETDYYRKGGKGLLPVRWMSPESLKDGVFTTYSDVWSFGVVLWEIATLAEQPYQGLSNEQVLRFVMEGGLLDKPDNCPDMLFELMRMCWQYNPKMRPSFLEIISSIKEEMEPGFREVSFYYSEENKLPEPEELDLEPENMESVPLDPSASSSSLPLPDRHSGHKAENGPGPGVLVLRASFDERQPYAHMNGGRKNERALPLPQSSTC
Chain of BRAF (P15056 whole entry): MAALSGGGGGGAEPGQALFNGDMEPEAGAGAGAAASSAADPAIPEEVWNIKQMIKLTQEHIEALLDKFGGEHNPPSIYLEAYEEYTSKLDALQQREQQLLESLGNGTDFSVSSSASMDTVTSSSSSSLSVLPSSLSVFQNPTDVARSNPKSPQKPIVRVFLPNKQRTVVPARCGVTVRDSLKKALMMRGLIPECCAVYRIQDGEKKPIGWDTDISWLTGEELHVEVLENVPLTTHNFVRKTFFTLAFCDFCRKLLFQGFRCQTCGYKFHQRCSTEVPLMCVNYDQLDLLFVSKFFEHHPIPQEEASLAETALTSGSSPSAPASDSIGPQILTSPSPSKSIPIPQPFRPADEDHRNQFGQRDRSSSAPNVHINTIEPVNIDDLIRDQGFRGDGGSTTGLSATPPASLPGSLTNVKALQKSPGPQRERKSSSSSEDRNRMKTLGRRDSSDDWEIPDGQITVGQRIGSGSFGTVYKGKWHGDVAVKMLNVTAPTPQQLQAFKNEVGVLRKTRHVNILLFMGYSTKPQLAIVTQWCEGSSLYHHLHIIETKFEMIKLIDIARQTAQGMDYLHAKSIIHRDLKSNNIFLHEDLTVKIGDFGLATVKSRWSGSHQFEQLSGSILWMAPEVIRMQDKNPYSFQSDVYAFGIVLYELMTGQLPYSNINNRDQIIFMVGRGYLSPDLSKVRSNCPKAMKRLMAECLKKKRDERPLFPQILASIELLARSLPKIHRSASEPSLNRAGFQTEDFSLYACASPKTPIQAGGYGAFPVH
Chain of CAMKK2 (Q96RR4 whole entry): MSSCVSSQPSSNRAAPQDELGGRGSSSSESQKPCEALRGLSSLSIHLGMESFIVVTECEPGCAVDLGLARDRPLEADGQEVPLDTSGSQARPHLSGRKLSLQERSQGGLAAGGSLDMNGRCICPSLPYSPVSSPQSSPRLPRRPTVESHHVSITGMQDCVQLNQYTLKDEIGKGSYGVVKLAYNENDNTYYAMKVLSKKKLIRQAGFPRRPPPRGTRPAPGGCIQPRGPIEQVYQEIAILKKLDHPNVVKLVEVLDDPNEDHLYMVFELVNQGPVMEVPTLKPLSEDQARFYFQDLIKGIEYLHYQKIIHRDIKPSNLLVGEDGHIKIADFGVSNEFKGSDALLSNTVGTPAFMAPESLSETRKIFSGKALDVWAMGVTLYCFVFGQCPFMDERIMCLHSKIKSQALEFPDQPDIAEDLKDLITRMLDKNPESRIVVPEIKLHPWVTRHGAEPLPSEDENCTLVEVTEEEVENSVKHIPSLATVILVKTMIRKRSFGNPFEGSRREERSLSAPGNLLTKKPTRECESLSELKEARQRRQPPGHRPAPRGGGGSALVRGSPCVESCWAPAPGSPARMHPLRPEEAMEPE
Chain of Abl (P00519 whole entry): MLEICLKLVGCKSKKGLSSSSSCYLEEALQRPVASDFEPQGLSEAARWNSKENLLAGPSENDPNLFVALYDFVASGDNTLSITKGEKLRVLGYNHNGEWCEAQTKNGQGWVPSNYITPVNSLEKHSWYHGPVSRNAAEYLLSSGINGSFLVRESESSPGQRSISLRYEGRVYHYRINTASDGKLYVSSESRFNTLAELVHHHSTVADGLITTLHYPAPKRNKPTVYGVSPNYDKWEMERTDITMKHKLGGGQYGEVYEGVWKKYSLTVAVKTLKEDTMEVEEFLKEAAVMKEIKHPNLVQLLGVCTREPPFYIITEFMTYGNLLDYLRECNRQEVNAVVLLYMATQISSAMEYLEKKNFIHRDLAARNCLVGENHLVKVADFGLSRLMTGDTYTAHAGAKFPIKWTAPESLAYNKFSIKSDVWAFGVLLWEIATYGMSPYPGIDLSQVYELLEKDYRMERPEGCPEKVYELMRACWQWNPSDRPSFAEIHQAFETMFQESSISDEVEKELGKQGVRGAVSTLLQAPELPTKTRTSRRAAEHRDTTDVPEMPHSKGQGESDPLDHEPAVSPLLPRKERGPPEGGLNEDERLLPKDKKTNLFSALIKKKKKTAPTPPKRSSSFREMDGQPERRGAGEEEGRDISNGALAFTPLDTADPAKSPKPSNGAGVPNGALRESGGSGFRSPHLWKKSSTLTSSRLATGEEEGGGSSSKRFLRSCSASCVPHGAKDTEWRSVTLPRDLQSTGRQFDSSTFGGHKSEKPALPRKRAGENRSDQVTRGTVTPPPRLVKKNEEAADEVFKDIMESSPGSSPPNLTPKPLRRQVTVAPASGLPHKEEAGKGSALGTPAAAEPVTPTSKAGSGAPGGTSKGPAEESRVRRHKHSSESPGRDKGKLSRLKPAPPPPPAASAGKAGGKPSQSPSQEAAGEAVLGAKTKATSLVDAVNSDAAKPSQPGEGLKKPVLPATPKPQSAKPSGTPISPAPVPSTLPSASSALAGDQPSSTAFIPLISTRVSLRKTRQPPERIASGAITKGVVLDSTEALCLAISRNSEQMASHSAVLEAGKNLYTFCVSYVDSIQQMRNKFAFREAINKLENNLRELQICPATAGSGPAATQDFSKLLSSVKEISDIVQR
Chain of Wee1 (P30291 whole entry): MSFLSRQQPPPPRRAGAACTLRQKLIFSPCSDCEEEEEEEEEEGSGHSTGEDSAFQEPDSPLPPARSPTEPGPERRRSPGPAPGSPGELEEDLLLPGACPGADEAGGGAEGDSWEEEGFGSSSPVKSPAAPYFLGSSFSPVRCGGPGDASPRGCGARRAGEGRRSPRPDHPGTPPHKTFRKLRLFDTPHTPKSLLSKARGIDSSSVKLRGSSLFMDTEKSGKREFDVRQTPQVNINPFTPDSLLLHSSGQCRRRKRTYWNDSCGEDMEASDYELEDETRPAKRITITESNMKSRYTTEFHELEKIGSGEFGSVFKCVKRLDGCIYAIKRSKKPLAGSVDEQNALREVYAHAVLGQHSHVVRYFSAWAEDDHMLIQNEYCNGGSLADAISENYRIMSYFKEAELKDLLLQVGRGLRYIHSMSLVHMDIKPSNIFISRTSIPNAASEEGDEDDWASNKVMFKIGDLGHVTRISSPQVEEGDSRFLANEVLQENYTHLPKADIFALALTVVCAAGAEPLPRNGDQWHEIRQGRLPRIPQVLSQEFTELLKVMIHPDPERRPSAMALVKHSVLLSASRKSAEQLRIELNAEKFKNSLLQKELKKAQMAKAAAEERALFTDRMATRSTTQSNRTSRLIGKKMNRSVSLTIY

CC1(C)CCC(c2ccc(Cl)cc2)=C(CN2CCN(c3ccc(C(=O)NS(=O)(=O)c4ccc(N[C@H](CCN5CCOCC5)CSc5ccccc5)c(S(=O)(=O)C(F)(F)F)c4)cc3)CC2)C1 [ABT-263]
activity in xenograft models [1]: pronounced oral activity
Viability (% Inhibiton) (SET-2 cells; ABT-263 0.003 uM): 0%
Viability (% Inhibiton) (SET-2 cells; ABT-263 0.01 uM): 3%
Viability (% Inhibiton) (SET-2 cells; ABT-263 0.03 uM): 4%
Viability (% Inhibiton) (SET-2 cells; ABT-263 0.1 uM): 28%
Viability (% Inhibiton) (SET-2 cells; ABT-263 0.3 uM): 63%
Viability (% Inhibiton) (SET-2 cells; ABT-263 1 uM): 95%

CC(C)(C)c1nc2c3cc[nH]c(=O)c3c3cc(F)ccc3c2[nH]1 [JAKi-I, JAK inhibitor I]
Ki (Syk CatDom): > 3.26 µM
Ki (IGF1R): > 2.65 µM
Ki (Abl): > 2.6 µM
Ki (MAP3K10): > 3.06 µM
Ki (AMPK): 0.148 µM
Bcl-XL protein level (Bcl-XL): sharply declined
MCL-1 % Control (Mcl-1 mRNA; HEL cells): 59.2674%
MCL-1 Mean QTY (Mcl-1 mRNA; HEL cells): 25.0
MCL-1 % Control (Mcl-1 mRNA; K562 cells): 89.9219%
MCL-1 Mean QTY (Mcl-1 mRNA; K562 cells): 50.9
MCL-1 Mean QTY (Mcl-1 mRNA; MV411 cells): 30.6
MCL-1 % Control (Mcl-1 mRNA; SET2 cells): 37.995%
MCL-1 Mean QTY (Mcl-1 mRNA; SET2 cells): 47.0
Mcl-1 transcript level (Mcl-1 mRNA; following JAK inhibition, 6 hr): sharply declined
Ki (BRAF): > 3.37 µM
BCLxl % Control (Bcl-XL mRNA; HEL cells): 30.4093%
BCLxl Mean QTY (Bcl-XL mRNA; HEL cells): 76.1
BCLxl % Control (Bcl-XL mRNA; K562 cells): 93.9154%
BCLxl Mean QTY (Bcl-XL mRNA; K562 cells): 98.4
BCLxl % Control (Bcl-XL mRNA; MV411 cells): 101.412%
BCLxl Mean QTY (Bcl-XL mRNA; MV411 cells): 30.8
BCLxl % Control (Bcl-XL mRNA; SET2 cells): 19.4966%
BCLxl Mean QTY (Bcl-XL mRNA; SET2 cells): 62.5
Bcl-XL transcript level (Bcl-XL mRNA; following JAK inhibition, 6 hr): sharply declined
Ki (cdk2): > 3.24 µM
Ki (EGFR): > 1.67 µM
Ki (Wee1): > 3.64 µM
Ki (ACVR1): > 4.32 µM
Ki (CAMKK2): > 3.1 µM
